Measured values taken from PubChem BioAssay (NCI).
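Where inhibition never reached the appropriate level, the endpoint shown equals the highest concentration tested. Otherwise, values were interpolated linearly from a five-concentration, 48-hour dose response in 96-well plates. GI50 marks 50% less growth. The concentration for full growth arrest is given as TGI.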

Columns and labels:
Test in all cases: NCI anticancer screen, dose series, 48 h
786-0 renal = system: 786-0 renal
MCF7 breast = system: MCF7 breast
NCI/ADR-RES ovarian = system: NCI/ADR-RES ovarian
SF-268 CNS = system: SF-268 CNS
EKVX NSCLC = system: EKVX NSCLC
TK-10 renal = system: TK-10 renal
A549 NSCLC = system: A549 NSCLC
HL-60(TB) leukemia = system: HL-60(TB) leukemia
HCT-15 colon = system: HCT-15 colon
RXF 393 renal = system: RXF 393 renal
HOP-62 NSCLC = system: HOP-62 NSCLC
ACHN renal = system: ACHN renal
IGROV1 ovarian = system: IGROV1 ovarian
A498 renal = system: A498 renal
UO-31 renal = system: UO-31 renal
CCRF-CEM leukemia = system: CCRF-CEM leukemia
HCT-116 colon = system: HCT-116 colon
NCI-H226 lung = system: NCI-H226 lung
M14 melanoma = system: M14 melanoma
HOP-92 NSCLC = system: HOP-92 NSCLC
NCI-H460 lung = system: NCI-H460 lung
SW-620 colon = system: SW-620 colon
CAKI-1 renal = system: CAKI-1 renal
HT29 colon = system: HT29 colon
LOX IMVI melanoma = system: LOX IMVI melanoma
MDA-MB-435 = system: MDA-MB-435
SN12C renal = system: SN12C renal
UACC-62 melanoma = system: UACC-62 melanoma
OVCAR-3 ovarian = system: OVCAR-3 ovarian
SK-OV-3 ovarian = system: SK-OV-3 ovarian
OVCAR-8 ovarian = system: OVCAR-8 ovarian
SNB-19 CNS = system: SNB-19 CNS
DU-145 prostate = system: DU-145 prostate
SK-MEL-28 melanoma = system: SK-MEL-28 melanoma
SF-539 CNS = system: SF-539 CNS
HCC-2998 colon = system: HCC-2998 colon
MOLT-4 leukemia = system: MOLT-4 leukemia
NCI-H522 lung = system: NCI-H522 lung
K-562 leukemia = system: K-562 leukemia
U251 CNS = system: U251 CNS
RPMI-8226 leukemia = system: RPMI-8226 leukemia
PC-3 prostate = system: PC-3 prostate
NCI-H23 lung = system: NCI-H23 lung
SNB-75 CNS = system: SNB-75 CNS
SK-MEL-2 melanoma = system: SK-MEL-2 melanoma
OVCAR-4 ovarian = system: OVCAR-4 ovarian
MDA-MB-231 breast = system: MDA-MB-231 breast
T-47D breast = system: T-47D breast
OVCAR-5 ovarian = system: OVCAR-5 ovarian
HS 578T breast = system: HS 578T breast
SK-MEL-5 melanoma = system: SK-MEL-5 melanoma
COLO 205 colon = system: COLO 205 colon
BT-549 breast = system: BT-549 breast
KM12 colon = system: KM12 colon
MALME-3M melanoma = system: MALME-3M melanoma
UACC-257 melanoma = system: UACC-257 melanoma

SMILES: Cc1cc(Cl)ccc1Nc1nc(C(F)(F)F)ccc1C(=O)N/N=C/c1ccc(Cl)cc1
- GI50 (786-0 renal): 2.04 µM
- TGI (786-0 renal): 5.74 µM
- GI50 (MCF7 breast): 1.55 µM
- TGI (MCF7 breast): 4.7 µM
- GI50 (NCI/ADR-RES ovarian): 2.16 µM
- TGI (NCI/ADR-RES ovarian): 6.38 µM
- GI50 (SF-268 CNS): 1.35 µM
- TGI (SF-268 CNS): 10.1 µM
- GI50 (EKVX NSCLC): 1.25 µM
- TGI (EKVX NSCLC): 4.45 µM
- GI50 (TK-10 renal): 1.66 µM
- TGI (TK-10 renal): 7.01 µM
- GI50 (A549 NSCLC): 3.02 µM
- TGI (A549 NSCLC): 27.9 µM
- GI50 (HL-60(TB) leukemia): 2.1 µM
- TGI (HL-60(TB) leukemia): 4.63 µM
- GI50 (HCT-15 colon): 0.895 µM
- TGI (HCT-15 colon): 13.1 µM
- GI50 (RXF 393 renal): 3.08 µM
- TGI (RXF 393 renal): 22.2 µM
- GI50 (HOP-62 NSCLC): 2.33 µM
- TGI (HOP-62 NSCLC): 9.22 µM
- GI50 (ACHN renal): 2.48 µM
- TGI (ACHN renal): 8.71 µM
- GI50 (IGROV1 ovarian): 3.31 µM
- TGI (IGROV1 ovarian): 13.6 µM
- GI50 (A498 renal): 1.91 µM
- TGI (A498 renal): 6.13 µM
- GI50 (UO-31 renal): 1.5 µM
- TGI (UO-31 renal): 6.04 µM
- GI50 (CCRF-CEM leukemia): 0.384 µM
- TGI (CCRF-CEM leukemia): 3.39 µM
- GI50 (HCT-116 colon): 2.46 µM
- TGI (HCT-116 colon): 9.87 µM
- GI50 (NCI-H226 lung): 1.21 µM
- TGI (NCI-H226 lung): 3.82 µM
- GI50 (M14 melanoma): 2.34 µM
- TGI (M14 melanoma): 7.63 µM
- GI50 (HOP-92 NSCLC): 1.94 µM
- TGI (HOP-92 NSCLC): 6.85 µM
- GI50 (NCI-H460 lung): 2.37 µM
- TGI (NCI-H460 lung): 9.08 µM
- GI50 (SW-620 colon): 2.15 µM
- TGI (SW-620 colon): 11 µM
- GI50 (CAKI-1 renal): 1.25 µM
- TGI (CAKI-1 renal): 3.85 µM
- GI50 (HT29 colon): 3.24 µM
- TGI (HT29 colon): 10.4 µM
- GI50 (LOX IMVI melanoma): 1.38 µM
- TGI (LOX IMVI melanoma): 11.7 µM
- GI50 (MDA-MB-435): 1.42 µM
- TGI (MDA-MB-435): 3.89 µM
- GI50 (SN12C renal): 2.22 µM
- TGI (SN12C renal): 9 µM
- GI50 (UACC-62 melanoma): 2.14 µM
- TGI (UACC-62 melanoma): 5.33 µM
- GI50 (OVCAR-3 ovarian): 1.32 µM
- TGI (OVCAR-3 ovarian): 5.28 µM
- GI50 (SK-OV-3 ovarian): 1.69 µM
- TGI (SK-OV-3 ovarian): 5.57 µM
- GI50 (OVCAR-8 ovarian): 3.16 µM
- TGI (OVCAR-8 ovarian): > 100 µM
- GI50 (SNB-19 CNS): 2.6 µM
- TGI (SNB-19 CNS): 12.4 µM
- GI50 (DU-145 prostate): 2.56 µM
- TGI (DU-145 prostate): 13.1 µM
- GI50 (SK-MEL-28 melanoma): 2.18 µM
- TGI (SK-MEL-28 melanoma): 12.7 µM
- GI50 (SF-539 CNS): 1.7 µM
- TGI (SF-539 CNS): 3.96 µM
- GI50 (HCC-2998 colon): 1.45 µM
- TGI (HCC-2998 colon): 4.7 µM
- GI50 (MOLT-4 leukemia): 0.75 µM
- TGI (MOLT-4 leukemia): 4.35 µM
- GI50 (NCI-H522 lung): 2.23 µM
- TGI (NCI-H522 lung): 7.96 µM
- GI50 (K-562 leukemia): 1.83 µM
- TGI (K-562 leukemia): 8.22 µM
- GI50 (U251 CNS): 2.07 µM
- GI50 (RPMI-8226 leukemia): 2.01 µM
- TGI (RPMI-8226 leukemia): 6.3 µM
- GI50 (PC-3 prostate): 2.13 µM
- TGI (PC-3 prostate): 9.31 µM
- GI50 (NCI-H23 lung): 1.85 µM
- TGI (NCI-H23 lung): 6.48 µM
- GI50 (SNB-75 CNS): 1.51 µM
- TGI (SNB-75 CNS): 6.48 µM
- GI50 (SK-MEL-2 melanoma): 2.18 µM
- TGI (SK-MEL-2 melanoma): 9.2 µM
- GI50 (OVCAR-4 ovarian): 1.46 µM
- TGI (OVCAR-4 ovarian): 21.2 µM
- GI50 (MDA-MB-231 breast): 1.09 µM
- TGI (MDA-MB-231 breast): 4.22 µM
- GI50 (T-47D breast): 2.17 µM
- TGI (T-47D breast): 9.26 µM
- GI50 (OVCAR-5 ovarian): 2.07 µM
- TGI (OVCAR-5 ovarian): 6.64 µM
- GI50 (HS 578T breast): 2.53 µM
- TGI (HS 578T breast): 9.62 µM
- GI50 (SK-MEL-5 melanoma): 1.52 µM
- TGI (SK-MEL-5 melanoma): 3.02 µM
- GI50 (COLO 205 colon): 1.63 µM
- TGI (COLO 205 colon): 3.37 µM
- GI50 (BT-549 breast): 1.34 µM
- TGI (BT-549 breast): 4.71 µM
- GI50 (KM12 colon): 2.08 µM
- TGI (KM12 colon): 7.24 µM
- GI50 (MALME-3M melanoma): 2.02 µM
- TGI (MALME-3M melanoma): 5.51 µM
- GI50 (UACC-257 melanoma): 3.67 µM
- TGI (UACC-257 melanoma): 16.3 µM
